In BindingDB's records for doi:10.1016/j.bioorg.2016.03.010 (Universiti Teknologi Mara (Uitm), Puncak Alam Campus, 2016):

Molecular target: Urease (Canavalia ensiformis, UniProt P07374)
Assay: Urease Inhibition Assay
Details: pH 6.8; 30 °C
Protocol: To understand the binding modes of the compounds given in Table 1, all ligands were docked into the binding site of Urease enzyme. The top ranked conformations of each ligand were saved in a separate database for further evaluation. The docking results well correlated with the experimental results. The reaction mixtures, comprising 25 uL of enzyme (jack bean urease, Sigma aldrich) solution and 55 uL of buffers containing 100 mM urea, were incubated with 5 uL of the test compounds (0.5 mM concentration) at 30 °C for 15 min in 96-well plates. For the kinetics assessment the urea concentrations were changed from 2 to 24 mM. Urease activity was determined by measuring ammonia production using the indophenol method as described by Weatherburn. Briefly, 45 uL of phenol reagent (1% w/v phenol and 0.005% w/v sodium nitroprusside (Sigma Aldrich)) and, 70 uL of alkali reagent (0.5% w/v NaOH (Sigma Aldrich) and 0.1% active chloride NaOCl (Sigma Aldrich)) were added to each well. The increasing absorbance at 630 nm was measured after 50 min, using a microplate reader (Molecular Device, USA). All reactions were performed in triplicate in a final volume of 200 uL. The results (change in absorbance per min) were processed by using SoftMax-Pro software (molecular Device, USA). The entire assays were performed at pH 6.8.

Urease, sequence (P07374 whole entry): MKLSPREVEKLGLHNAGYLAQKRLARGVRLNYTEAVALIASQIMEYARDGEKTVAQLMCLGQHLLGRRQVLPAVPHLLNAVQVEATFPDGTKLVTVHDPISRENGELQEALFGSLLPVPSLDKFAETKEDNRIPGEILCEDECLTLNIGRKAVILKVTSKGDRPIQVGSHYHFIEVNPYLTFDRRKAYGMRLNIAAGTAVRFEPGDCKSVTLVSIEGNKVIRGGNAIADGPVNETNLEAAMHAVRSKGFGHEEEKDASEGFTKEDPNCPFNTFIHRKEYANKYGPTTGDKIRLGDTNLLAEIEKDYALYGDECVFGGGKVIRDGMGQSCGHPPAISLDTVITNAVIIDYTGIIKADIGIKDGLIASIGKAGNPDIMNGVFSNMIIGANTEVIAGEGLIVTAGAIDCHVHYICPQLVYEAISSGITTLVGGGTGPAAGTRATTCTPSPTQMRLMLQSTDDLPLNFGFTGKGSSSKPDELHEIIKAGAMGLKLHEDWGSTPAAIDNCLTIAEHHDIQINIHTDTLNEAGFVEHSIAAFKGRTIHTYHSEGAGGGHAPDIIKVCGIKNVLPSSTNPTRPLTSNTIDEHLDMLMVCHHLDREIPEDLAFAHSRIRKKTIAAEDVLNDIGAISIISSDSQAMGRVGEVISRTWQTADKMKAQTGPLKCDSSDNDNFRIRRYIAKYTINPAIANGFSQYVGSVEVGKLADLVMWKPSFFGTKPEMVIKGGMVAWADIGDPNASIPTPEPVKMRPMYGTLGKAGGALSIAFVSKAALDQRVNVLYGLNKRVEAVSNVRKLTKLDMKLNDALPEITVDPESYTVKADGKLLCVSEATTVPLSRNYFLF

`O=C(NNC(=S)Nc1ccccc1Br)c1ccc(-c2nc3ccccc3s2)cc1` [2-(4-(benzo[d]thiazol-2-yl)benzoyl)-N-(2-bromophenyl)hydrazinecarbothioamide (4)] showed an IC50 of 6.9 µM.
`O=C(NNC(=S)Nc1ccccc1Cl)c1ccc(-c2nc3ccccc3s2)cc1` [2-(4-(benzo[d]thiazol-2-yl)benzoyl)-N-(2-chlorophenyl)hydrazinecarbothioamide (3)] showed an IC50 of 4.3 µM.
With `O=C(NNC(=S)Nc1ccccc1F)c1ccc(-c2nc3ccccc3s2)cc1` [2-(4-(benzo[d]thiazol-2-yl)benzoyl)-N-(2-fluorophenyl)hydrazinecarbothioamide (2)] the IC50 was 3.4 µM.
`O=C(NNC(=S)Nc1cccc(F)c1)c1ccc(-c2nc3ccccc3s2)cc1` [2-(4-(benzo[d]thiazol-2-yl)benzoyl)-N-(3-fluorophenyl)hydrazinecarbothioamide (12)] was tested, and the IC50 was 6.3 µM.
In the case of `COc1cccc(NC(=S)NNC(=O)c2ccc(-c3nc4ccccc4s3)cc2)c1` [2-(4-(benzo[d]thiazol-2-yl)benzoyl)-N-(3-methoxyphenyl)hydrazinecarbothioamide (15)], the IC50 is reported as 28.1 µM.
`O=C(NNC(=S)Nc1ccc(C(F)(F)F)cc1)c1ccc(-c2nc3ccccc3s2)cc1` [2-(4-(benzo[d]thiazol-2-yl)benzoyl)-N-(4-(trifluoromethyl)phenyl)hydrazine-carbothioamide (17)] gave an IC50 of 1.6 µM.
`O=C(NNC(=S)Nc1ccc(Br)cc1)c1ccc(-c2nc3ccccc3s2)cc1` [2-(4-(benzo[d]thiazol-2-yl)benzoyl)-N-(4-bromophenyl)hydrazinecarbothioamide (7)] gave an IC50 of 13.7 µM.
`O=C(NNC(=S)Nc1ccc(Cl)cc1)c1ccc(-c2nc3ccccc3s2)cc1` [2-(4-(benzo[d]thiazol-2-yl)benzoyl)-N-(4-chlorophenyl)hydrazinecarbothioamide (8)] was tested, and the IC50 was 5.5 µM.
`O=C(NNC(=S)Nc1ccc(F)cc1)c1ccc(-c2nc3ccccc3s2)cc1` [2-(4-(benzo[d]thiazol-2-yl)benzoyl)-N-(4-fluorophenyl)hydrazinecarbothioamide (6)] showed an IC50 of 2.5 µM.
`COc1ccc(NC(=S)NNC(=O)c2ccc(-c3nc4ccccc4s3)cc2)cc1` [2-(4-(benzo[d]thiazol-2-yl)benzoyl)-N-(4-methoxyphenyl)hydrazinecarbothioamide (9)] showed an IC50 of 13.6 µM.
In the case of `O=C(NNC(=S)Nc1ccc([N+](=O)[O-])cc1)c1ccc(-c2nc3ccccc3s2)cc1` [2-(4-(benzo[d]thiazol-2-yl)benzoyl)-N-(4-nitrophenyl)hydrazinecarbothioamide (10)], the IC50 is reported as 1.4 µM.
`Cc1cccc(NC(=S)NNC(=O)c2ccc(-c3nc4ccccc4s3)cc2)c1` [2-(4-(benzo[d]thiazol-2-yl)benzoyl)-N-(m-tolyl)hydrazinecarbothioamide (11)] gave an IC50 of 18.7 µM.
`Cc1ccccc1NC(=S)NNC(=O)c1ccc(-c2nc3ccccc3s2)cc1` [2-(4-(benzo[d]thiazol-2-yl)benzoyl)-N-(o-tolyl)hydrazinecarbothioamide (1)] showed an IC50 of 7.4 µM.
`Cc1ccc(NC(=S)NNC(=O)c2ccc(-c3nc4ccccc4s3)cc2)cc1` [2-(4-(benzo[d]thiazol-2-yl)benzoyl)-N-(p-tolyl)hydrazinecarbothioamide (5)] gave an IC50 of 10.4 µM.
Compound `O=C(NNC(=S)Nc1ccccc1)c1ccc(-c2nc3ccccc3s2)cc1` [2-(4-(benzo[d]thiazol-2-yl)benzoyl)-N-phenylhydrazinecarbothioamide (20)] has an IC50 of 19.1 µM.
`O=C(NNC(=S)Nc1cccc(Br)c1)c1ccc(-c2nc3ccccc3s2)cc1` [4-(1,3-benzothiazol-2-yl)-N-{[(3-bromophenyl)carbamothioyl]amino}benzamide (13)] gave an IC50 of 11.4 µM.
Compound `O=C(NNC(=S)Nc1cccc([N+](=O)[O-])c1)c1ccc(-c2nc3ccccc3s2)cc1` [4-(1,3-benzothiazol-2-yl)-N-{[(3-nitrophenyl)carbamothioyl]amino}benzamide (14)] has an IC50 of 5.7 µM.
In the case of `O=C(NNC(=S)NC12CC3CC(CC(C3)C1)C2)c1ccc(-c2nc3ccccc3s2)cc1` [N-(adamantan-1-yl)-2-(4-(benzo[d]thiazol-2-yl)benzoyl)hydrazinecarbothioamide (19)], the IC50 is reported as 34.4 µM.
